Patent US8703950B2, “Low ABUK oxycodone, its salts and methods of making same” (Johnson Matthey Public Limited Co., priority 2010, dated 2014)

How the values were obtained:
[1] = Hot acid stress test (aq. HCl, 65° C., 14-hydroxycodeinone monitored by LC/MS); format: physicochemical; conditions: for growth in 14-hydroxycodeinone in hot acid: 65° C. aq. hydrochloride acid at pH<1, after 24 hours; for ABUK (14-hydroxycodeinone) level, 2 hours in hot acid / ABUK (14-hydroxycodeinone) level, 5 hours in hot acid / ABUK (14-hydroxycodeinone) level, 24 hours in hot acid: 65° C., aq. HCl; for ABUK (14-hydroxycodeinone) level, 0 hours in hot acid (T-zero): before heating, water + 3N aq. HCl
[2] = Dry heat stress test (lab drying oven under air at 62° C., 14-hydroxycodeinone monitored by LC/MS); format: physicochemical; conditions: for growth of 14-hydroxycodeinone, dry heat: dry heat (greater than 60° C.), after 14 days; for ABUK (14-hydroxycodeinone) level, 4 days at 62° C. / ABUK (14-hydroxycodeinone) level, 7 days at 62° C. / ABUK (14-hydroxycodeinone) level, 14 days at 62° C.: dry heat, under air; for growth in the level of 14-hydroxycodeinone, dry heat at 62° C.: under air at 62° C., monitored for 14 days
Method: A 0.0225 g (0.597 sample of low ABUK oxycodone HCl (T-zero: 3.9 ppm 14-hydroxycodeinone) was placed in a standard lab drying oven under air at 62° C. and the level of 14-hydroxycodeinone was monitored by LC/MS for 14 days. No growth in the level of 14-hydroxycodeinone was observed.
A 0.0225 g (0.597 sample of low ABUK oxycodone (T zero: 3.3 ppm 14-hydroxycodeinone by LC/MS was placed in a standard lab drying oven under air at 62° C. and the level of 14-hydroxycodeinone was monitored by LC/MS for 14 days. No growth in the level of 14-hydroxycodeinone was observed
1.10 Procedure: • Separately inject the diluent as a blank. • Inject the resolution solution once. • Inject the impurity working standard three times. • Inject each sample solution under the full gradient. • Inject the diluent at the end. • Quantify the level of 14-Hydroxy Codeinone in the sample by comparing to the averaged corresponding peak specific response (SR) of the standard solution. • Report the level of 14-Hydroxy Codeinone found in the sample to the nearest 0.0001%. • Report the peak area of the diols for information only.

[3] = mixture of the two diol species in acid, 20 hour period

Row | Structure (SMILES) | growth in 14-hydroxycodeinone in hot acid [1] | ABUK (14-hydroxycodeinone) level, 2 hours in hot acid [1] [ppm] | ABUK (14-hydroxycodeinone) level, 5 hours in hot acid [1] [ppm] | ABUK (14-hydroxycodeinone) level, 24 hours in hot acid [1] [ppm] | ABUK (14-hydroxycodeinone) level, 0 hours in hot acid (T-zero) [1] [ppm] | ABUK (14-hydroxycodeinone) level, T-zero (dry heat test) [2] [ppm] | growth of 14-hydroxycodeinone, dry heat [2] | ABUK (14-hydroxycodeinone) level, 4 days at 62° C. [2] [ppm] | ABUK (14-hydroxycodeinone) level, 7 days at 62° C. [2] [ppm] | ABUK (14-hydroxycodeinone) level, 14 days at 62° C. [2] [ppm] | growth in the level of 14-hydroxycodeinone, dry heat at 62° C. [2] | ABUK (14-hydroxycodeinone) level, 0 hours in hot acid (T-zero) ([1]; listed as low ABUK oxycodone base) [ppm] | degradation on exposure to acid [3]
1 | COc1ccc2c3c1O[C@H]1C(=O)CC[C@@]4(O)[C@@H](C2)N(C)CC[C@]314.Cl [Oxycodone Hydrochloride from Example 11, oxycodone HCl] | no or minimal growth | 3.6 | 4.2 | 6.1 | 2.5 | 3.9 | no growth | 3.7 | 4.0 | 3.7 | No growth |  | 
2 | COc1ccc2c3c1O[C@H]1C(=O)CC[C@@]4(O)[C@@H](C2)N(C)CC[C@]314 [Oxycodone Base from Example 9, oxycodone base] | no or minimal growth | 2.5 | 3.3 | 6.4 | 2.5 | 3.3 | no growth | 3.4 | 3.3 | 3.6 | No growth | 2.7 | 
3 | COc1ccc2c3c1O[C@H]1C(=O)C[C@H](O)[C@@]4(O)[C@@H](C2)N(C)CC[C@]314 (single isomer, unassigned) [peak at RRT 0.91] |  |  |  |  |  |  |  |  |  |  |  |  | degraded little
